Laboratory results published in PubChem BioAssay AID540252 (Sanford-Burnham Center for Chemical Genomics, 2011).
Active and inactive are the calls of the source. How the calls were made is not given here.

What follows are compounds tested against glucose-6-phosphate dehydrogenase-6-phosphogluconolactonase (Plasmodium falciparum 3D7) (assay: PfG6PD enzyme inhibitors, direct NADPH readout, dose response, orthogonal assay, biochemical, end-point NADPH detection (AID 540252)). Conditions: purified PfG6PD enzyme.
`Cc1cc(C)c2c(=O)n(CC(=O)Nc3cccc(F)c3)sc2n1` was tested, and the IC50 was > 80 µM (inactive).
With `COc1ccc(S(=O)(=O)/N=C2\C=C(Nc3ccc(O)cc3)C(=O)c3ccccc32)cc1` the IC50 was > 80 µM (inactive).
With `CCOc1ccccc1NS(=O)(=O)c1c(C)noc1C` the IC50 was > 80 µM (inactive).
With `Cc1ccc(S(=O)(=O)/N=C2/C=C(C3C(=O)CC(C)(C)CC3=O)C(=O)c3ccccc32)cc1` the IC50 was > 80 µM (inactive).
For `Cc1ccc(/C=C/C(=O)Nc2ccc([N+](=O)[O-])c(NC(=O)/C=C/c3ccc(C)o3)c2)o1`, the IC50 was 33.6 µM.
With `CN(C)c1cccc2c1c(NC(=O)c1ccc(Cl)cc1)nn2C` the IC50 was > 80 µM (inactive).
`Cc1cc(O)c(-c2cc(O)c(C)cc2O)cc1O` was tested, and the IC50 was > 80 µM (inactive).
With `CC1=C(C)CS(=O)N(S(=O)(=O)c2ccc(Cl)cc2)C1` (centres undefined) the IC50 was > 80 µM (inactive).
`COc1ccc2nc3cc(Cl)ccc3c(Nc3ccc(O)c(CN4CCN(C)CC4)c3)c2c1` was tested, and the IC50 was > 80 µM (inactive).
For `Cc1nc2ccccn2c1-c1ccnn1S(=O)(=O)c1ccc(F)cc1`, the IC50 was > 80 µM (inactive).
With `CCOc1ccc(Cl)cc1/C=N/NC(N)=O` the IC50 was > 80 µM (inactive).
`O=C1Nc2ccccc2C(=O)C1(Cl)Cc1ccccc1` (centres undefined) was tested, and the IC50 was > 80 µM (inactive).
For `Cc1[nH]c2ccccc2c1/C=N/Nc1nncn1N`, the IC50 was > 80 µM (inactive).
`Oc1cc(CNCc2ccccc2)c(O)cc1CNCc1ccccc1` was tested, and the IC50 was > 80 µM (inactive).
Work on `O=C(CCC(=O)OCC(=O)c1ccc([N+](=O)[O-])cc1)Nc1ccccc1Cl` yielded an IC50 of 53 µM.
For `O=C(COC(=O)c1ccc2c(c1[N+](=O)[O-])C(=O)c1ccccc1C2=O)NC1CC1`, the IC50 was > 80 µM (inactive).
Compound `O=S(=O)(Nc1ccccc1F)c1cccc(NC(=S)NCCN2CCOCC2)c1` has an IC50 of 71.2 µM.
In the case of `CCOC(=O)Nc1ccc(NCc2ccc(F)cc2)nc1N`, the IC50 is reported as > 80 µM (inactive).
`COc1ccc(N2C(=O)/C(=C/c3cccs3)NC2=S)cc1` was tested, and the IC50 was > 80 µM (inactive).
In the case of `CN1/C(=C\C(=O)c2cccs2)Sc2ccccc21`, the IC50 is reported as > 80 µM (inactive).
`O=S(=O)(Nc1ccc(Cl)cc1)c1ccc(N2CCOCC2)c(NC(=S)NCCN2CCOCC2)c1` was tested, and the IC50 was > 80 µM (inactive).
Work on `O=C(O)c1cc(N2C(=O)C=CC2=O)cc(N2C(=O)C=CC2=O)c1` yielded an IC50 of 18.9 µM.
`CCC(c1ccc(O)c(O)c1)C(CC)c1ccc(O)c(O)c1` (centres undefined) was tested, and the IC50 was > 80 µM (inactive).
With `CN(C)c1ncc(C2=C(Cl)C(=O)C(N3CCCC3)=C(Cl)C2=O)s1` the IC50 was > 80 µM (inactive).
For `Cc1ccc(C(=O)Nc2nnc(S(=O)(=O)N3CCC(C)CC3)s2)cc1`, the IC50 was > 80 µM (inactive).
`O=[N+]([O-])c1cccc(SSc2cccc([N+](=O)[O-])c2)c1` gave an IC50 of 45.3 µM.
For `O=C1NC(=S)NC(=O)C1=Cc1ccc(Br)s1`, the IC50 was > 80 µM (inactive).
With `[O-]/[N+](=C\c1ccncc1)c1ccccc1` the IC50 was > 80 µM (inactive).
With `Nc1[nH]c(=O)[nH]c(=O)c1N=Cc1ccccc1` the IC50 was > 80 µM (inactive).
`CC1CN(c2ccccc2)NC1=O` (centres undefined) was tested, and the IC50 was > 80 µM (inactive).
For `COc1cccc(C(=O)Nc2nnc(S(=O)(=O)N(C)Cc3ccccc3)s2)c1`, the IC50 was > 80 µM (inactive).
`O=[N+]([O-])c1ccc(Sc2cccc3cccnc23)c2cccnc12` was tested, and the IC50 was > 80 µM (inactive).
With `COc1cc(CNc2ccc(N3CCCC3)cc2)ccc1OCc1ccccc1F` the IC50 was > 80 µM (inactive).
With `O=[N+]([O-])c1c(NCCCO)cc(Sc2nc3ccccc3s2)c2nonc12` the IC50 was > 80 µM (inactive).
For `O=C(Nc1nnc(C2CC2)s1)c1ccc(Cl)nc1`, the IC50 was > 80 µM (inactive).
`O=C(CCl)NCCN1C(=O)S/C(=C\c2cccnc2)C1=O` was tested, and the IC50 was > 80 µM (inactive).
In the case of `CCN1CCCC1CNC(=O)c1ccc2c(c1)NC(=O)/C(=C\c1ccccc1F)S2` (centres undefined), the IC50 is reported as > 80 µM (inactive).
`CCCNC(=O)Cn1sc2nc(C)cc(C)c2c1=O` was tested, and the IC50 was > 80 µM (inactive).
With `O=c1c2ccccc2sn1-c1cccc(Cl)c1` the IC50 was 13.7 µM.
In the case of `CC1COCC(C)N1C1=C(Cl)C(=O)c2ccccc2C1=O` (centres undefined), the IC50 is reported as > 80 µM (inactive).
`Oc1ccc(NCc2ccccc2OCc2ccccc2)cc1` was tested, and the IC50 was > 80 µM (inactive).
With `C[n+]1c(-c2ccccc2)cc2c(=Cc3ccc([N+](=O)[O-])cc3)c3ccccc3n21` the IC50 was > 80 µM (inactive).
For `O=C(Nc1nc(-c2ccncc2)cs1)C1COc2ccccc2O1` (centres undefined), the IC50 was > 80 µM (inactive).
For `Cc1ccccc1-n1sc2cc(F)ccc2c1=O`, the IC50 was 8.11 µM.
In the case of `N#CC(C#N)=C1C=CC=CN1/C(=C\c1ccccc1Cl)C(=O)c1ccccc1`, the IC50 is reported as > 80 µM (inactive).
For `CN1CCc2cccc3c2[C@@H]1Cc1ccc(O)c(O)c1-3`, the IC50 was > 80 µM (inactive).
For `CC(=O)Nc1cc2c(cc1[N+](=O)[O-])-c1ccccc1C2O` (centres undefined), the IC50 was 74.5 µM.
Work on `Cc1ccc(N2CC(C(=O)OCC(=O)c3ccc([N+](=O)[O-])cc3)CC2=O)cc1` (centres undefined) yielded an IC50 of 50.9 µM.
`O=C(CN1CCN(c2ccc(O)cc2)CC1)Nc1cc(S(=O)(=O)N2CCOCC2)ccc1Cl` was tested, and the IC50 was > 80 µM (inactive).
In the case of `O=C(O)CSc1cc(NS(=O)(=O)c2ccc(Cl)cc2)c2ccccc2c1O`, the IC50 is reported as > 80 µM (inactive).
In the case of `COc1ccc(CCn2c(NN=C3CCCC3)nc3c2c(=O)[nH]c(=O)n3C)cc1`, the IC50 is reported as > 80 µM (inactive).
Work on `O=C(O)c1cccc(N2C(=O)C=CC2=O)c1` yielded an IC50 of 67.4 µM.
In the case of `N#CC1=C(N)Oc2c(O)cc3ccccc3c2C1c1ccsc1` (centres undefined), the IC50 is reported as > 80 µM (inactive).
With `COc1cc(N)c2ncccc2c1OC` the IC50 was > 80 µM (inactive).
`Cc1cc(C)c2c(=O)n(CC(=O)Nc3ccc(Br)c(C)c3)sc2n1` was tested, and the IC50 was > 80 µM (inactive).
For `COc1cc(/C=C2\SC(c3ccc(C)cc3)=NC2=O)cc(OC)c1O`, the IC50 was > 80 µM (inactive).
For `Clc1cccc(Cl)c1CNc1ccc(N2CCCC2)cc1`, the IC50 was > 80 µM (inactive).
For `c1cc2c(cc1NC1CCCCCC1)OCO2`, the IC50 was > 80 µM (inactive).
For `COC(=O)CCC(=O)OC1(C)C(=O)C2=CN(c3ccccc3)C(c3ccc(OC)cc3)=CC2=C(Br)C1=O` (centres undefined), the IC50 was > 80 µM (inactive).
In the case of `Cc1ccc(/C=C/C(=O)NCCc2cccc(Cl)c2)o1`, the IC50 is reported as > 80 µM (inactive).
In the case of `COc1ccc(/C=C/c2nc3ccccc3n2C)cc1`, the IC50 is reported as > 80 µM (inactive).
In the case of `CC(=O)OCCCNc1cc(Sc2nc3ccccc3s2)c2nonc2c1[N+](=O)[O-]`, the IC50 is reported as > 80 µM (inactive).
`CC1(OC(=O)C2CCCC2)C(=O)C=C2C=C(c3ccsc3)N(CCc3c[nH]c4ccccc34)C=C2C1=O` (centres undefined) was tested, and the IC50 was > 80 µM (inactive).
With `COC(=O)CCC(=O)Nc1sc(Cc2ccccc2)c(C)c1C(N)=O` the IC50 was > 80 µM (inactive).
`COc1ccc(N2CSC3=C(C#N)C(c4ccc(OC)c(OC)c4)CC(=O)N3C2)c(OC)c1` (centres undefined) was tested, and the IC50 was > 80 µM (inactive).
For `COC(=O)C1=C(C(=O)OC)SC2(S1)C(C(=O)OC)=C(C(=O)OC)Sc1c2ssc1=O`, the IC50 was > 80 µM (inactive).
For `CCn1c2ccccc2c2cc(/C=N/n3cn[nH]c3=S)ccc21`, the IC50 was > 80 µM (inactive).
With `C[C@]12CC[C@@H]3c4cc(O)c(O)cc4CC[C@H]3[C@@H]1CC[C@@H]2O` the IC50 was 38 µM.
In the case of `Cc1cc(C)c(S(=O)(=O)/N=C2/C=C(SCC(=O)O)C(=O)c3ccccc32)cc1C`, the IC50 is reported as > 80 µM (inactive).
In the case of `Cc1ccc(S(=O)(=O)Nc2nc(C)c(C(=O)N/N=C/c3ccccc3)s2)cc1`, the IC50 is reported as > 80 µM (inactive).
`COc1cccc(/C=N/NC(=O)CSc2cccc3cccnc23)c1` was tested, and the IC50 was > 80 µM (inactive).
In the case of `COC(=O)CCC(=O)OC1(C)C(=O)C2=CN(C3CC3)C(c3ccc(OC)cc3)=CC2=C(Br)C1=O` (centres undefined), the IC50 is reported as > 80 µM (inactive).
With `O=C(CSc1nc2cc(Cl)ccc2s1)c1ccco1` the IC50 was > 80 µM (inactive).
`O=C1C=CC(=O)N1c1ccc(N2CCCCC2)cc1` was tested, and the IC50 was 38 µM.
For `Clc1ccc2nc(-c3ccc4c(c3)OCO4)cn2c1`, the IC50 was > 80 µM (inactive).
For `COc1cc(-c2nnc3n2N=C(c2ccccc2)CS3)cc(OC)c1OC`, the IC50 was > 80 µM (inactive).
In the case of `CC(=O)Nc1cc([N+](=O)[O-])ccc1OCc1ccccc1`, the IC50 is reported as > 80 µM (inactive).
For `CN=c1scc(C)n1/N=C/c1ccc(O)c(O)c1O`, the IC50 was > 80 µM (inactive).
`O=c1c2ccccc2sn1-c1nccs1` was tested, and the IC50 was 26.2 µM.
With `Cc1ccc(NC(=O)c2cc(N3C(=O)C=CC3=O)ccc2Cl)cc1C` the IC50 was 49.2 µM.
For `CC(C)(C)c1ccc(O)c(O)c1`, the IC50 was 54.8 µM.
With `O=c1[nH]sc2cc(F)ccc12` the IC50 was > 80 µM (inactive).
`O=c1c2ccccc2sn1-c1ccccc1F` was tested, and the IC50 was 14.9 µM.
With `Cn1c(=O)c2[nH]c(-c3ccccc3)c(O)c2n(C)c1=O` the IC50 was > 80 µM (inactive).
For `Cc1ccc(-n2sc3ccccc3c2=O)cc1`, the IC50 was 24.8 µM.
`Oc1ccc(/C=N/N=C(c2ccccc2)c2ccccc2)c(O)c1O` was tested, and the IC50 was 67.4 µM.
For `Cc1cc(C)c2c(=O)n(CC(=O)NC3CCCC3)sc2n1`, the IC50 was > 80 µM (inactive).
In the case of `CNCc1ccccc1Sc1cc(O)ccc1O`, the IC50 is reported as > 80 µM (inactive).
`O=C(COc1cccc2ccccc12)Nc1ccc(Cl)cc1C(=O)O` was tested, and the IC50 was > 80 µM (inactive).
`Cc1ccc(NC(=O)c2ccc(Cl)c(N3C(=O)C=CC3=O)c2)cc1` showed an IC50 of 33.4 µM.
`COc1cc(O)c(C(=O)O)c(-c2cc(O)c(O)cc2C)c1` was tested, and the IC50 was > 80 µM (inactive).
For `COc1cc(N)c2ncccc2c1Cl`, the IC50 was > 80 µM (inactive).
`Cn1cc(S(=O)(=O)CC(=O)N2CCc3ccccc32)c2ccccc21` was tested, and the IC50 was > 80 µM (inactive).
For `Nc1ccc(S(=O)(=O)c2cc(O)c3ccccc3c2O)cc1`, the IC50 was > 80 µM (inactive).
For `C[C@H](CO)N1C[C@H](C)[C@@H](CN(C)C(=O)Nc2ccc(C(F)(F)F)cc2)Oc2c(cccc2N(C)C)C1=O`, the IC50 was > 80 µM (inactive).
In the case of `NCCc1cc(O)c(O)cc1O`, the IC50 is reported as > 80 µM (inactive).
In the case of `O=C(Nc1nnc(S(=O)(=O)N2CCOCC2)s1)c1ccc(F)cc1`, the IC50 is reported as > 80 µM (inactive).
With `O=C(Nc1sc2c(c1C(=O)O)CCC2)c1ccc(F)cc1` the IC50 was > 80 µM (inactive).
Work on `O=c1c2ccccc2sn1-c1ccc(Cl)cc1Cl` yielded an IC50 of 16.9 µM.
Compound `O=C1C=CC(=O)N1c1ccc2c(c1)C(NC(=O)C(F)(F)F)c1ccccc1-2` (centres undefined) has an IC50 of 20 µM.
With `Cc1cc(C)c(S(=O)(=O)Nc2cc(SCC(=O)O)c(O)c3ccccc23)cc1C` the IC50 was > 80 µM (inactive).
`C[C@]12CC[C@@H]3c4ccc(O)c(O)c4CC[C@H]3[C@@H]1CC[C@@H]2O` gave an IC50 of 22.3 µM.
With `CCC(=O)OCOc1ccc(/C=C2/CCC(CN(C)C)C2=O)cc1` (centres undefined) the IC50 was > 80 µM (inactive).
`COc1ccc(NS(=O)(=O)c2ccc(N3CCCC3)c(NC(=S)Nc3cccc(C)c3C)c2)cc1` was tested, and the IC50 was > 80 µM (inactive).
